Reference: patent publication US20100056565A1, “Heterocyclic Derivatives as M3 Muscarinic Receptors” (priority 2007, published 2010)
Counter-ions that a name gives are not always drawn. Like-named read-outs stand apart in the source and are kept apart here.

Columns and labels:
[1] = target: T1, human muscarinic receptors (M3) (Homo sapiens, UniProt P20309); experiment: Muscarinic receptor radioligand binding assay, [3H]-NMS, filter plate format
T1 construct: purchased
Method: Radioligand binding studies utilising [^3H]-N-methyl scopolamine ([^3H]-NMS) and commercially available cell membranes expressing the human muscarinic receptors (M2 and M3) were used to assess the affinity of muscarinic antagonists for M2 and M3 receptors. Membranes in TRIS buffer were incubated in 96-well plates with [^3H]-NMS and M3 antagonist at various concentrations for 3 hours. Membranes and bound radioligand were then harvested by filtration and allowed to dry overnight. Scintillation fluid was then added and the bound radioligand counted using a Canberra Packard Topcount scintillation counter

[2] = target: T2, Recombinant human M3 receptor (Homo sapiens, UniProt P20309); experiment: biochemical; format: binding
T2 construct: expressed in transfected cells; host or cells: CHO-K1 cells (membranes)

[3] = filter plate format, read-out: M3 Ki (Filter plate format)
[4] = SPA format, read-out: M3 Ki (SPA format)
[5] = M3, filter plate assay, read-out: Ki value in the filter plate assay

T2 sequence (P20309 whole entry): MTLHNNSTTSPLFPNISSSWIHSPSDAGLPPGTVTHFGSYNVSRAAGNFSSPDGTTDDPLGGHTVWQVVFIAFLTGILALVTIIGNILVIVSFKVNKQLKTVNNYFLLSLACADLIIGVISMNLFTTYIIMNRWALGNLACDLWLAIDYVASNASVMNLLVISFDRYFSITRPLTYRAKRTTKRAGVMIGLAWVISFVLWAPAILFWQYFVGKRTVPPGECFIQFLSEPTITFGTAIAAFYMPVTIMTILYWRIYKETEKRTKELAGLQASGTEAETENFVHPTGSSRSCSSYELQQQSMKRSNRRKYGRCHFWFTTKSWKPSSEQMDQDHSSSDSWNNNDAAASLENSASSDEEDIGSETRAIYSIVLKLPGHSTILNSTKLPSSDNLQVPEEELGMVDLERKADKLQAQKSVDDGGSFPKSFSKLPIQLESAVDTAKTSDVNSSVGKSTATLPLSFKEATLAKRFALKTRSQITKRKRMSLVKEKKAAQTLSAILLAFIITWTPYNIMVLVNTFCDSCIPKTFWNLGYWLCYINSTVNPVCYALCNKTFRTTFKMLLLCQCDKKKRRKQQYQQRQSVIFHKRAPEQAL
T1 sequence (P20309 whole entry): as above

| SMILES | Ki [2, 4] [nM] | other results |
| --- | --- | --- |
| O=C(O[C@@H]1C[N+]2(Cc3cnc([C@](O)(c4ccccc4)C4CCCCC4)o3)CCC1CC2)c1ccccc1 [Example 10, (S)-3-benzoyloxy-1-[2-((R)-cyclohexyl-hydroxy-phenyl-methyl)-oxazol-5-ylmethyl]-1-azonia-bicyclo[2.2.2]octane; formate] | – | Ki ([1]; M3 Ki (Filter plate format), filter plate format): 5 to 20 nM; Ki ([2]; M3 Ki (SPA format, SPA format)): 5 to 20 nM |
| OC(c1ccccc1)(c1ccccc1)c1ncc(C[N+]23CCC(CC2)C(Oc2ccccc2)C3)o1 (single isomer, unassigned; enantiomer 1) [Example 1, 1-[2-(Hydroxy-diphenyl-methyl)-oxazol-5-ylmethyl]-3-phenoxy-1-azoniabicyclo[2.2.2]octane bromide, enantiomer 1] | > 20 | Ki [1, 3]: > 20 nM |
| OC(c1ccccc1)(c1ncc(C[N+]23CCC(CC2)C(Oc2ccccc2)C3)o1)C1CCCCC1 (single isomer, unassigned; enantiomer 2) [Example 4, 1-[2-[(RS)—(Cyclohexyl-hydroxy-phenyl-methyl)]-oxazol-5-ylmethyl]-3-phenoxy-1-azonia-bicyclo[2.2.2]octane bromide, enantiomer 2] | – | Ki [1, 5]: 2 nM; Ki [1, 3]: < 5 nM |
| O[C@](c1ccccc1)(c1ncc(C[N+]23CCC(c4ccccc4)(CC2)CC3)o1)C1CCCCC1 [Example 11, 1-[2-((R)-cyclohexyl-hydroxy-phenyl-methyl)-oxazol-5-ylmethyl]-4-phenyl-1-azonia-bicyclo[2.2.2]octane; formate] | > 20 | Ki [1, 3]: > 20 nM |
| OC(c1ccccc1)(c1ccccc1)c1ncc(C[N+]23CCC(CC2)C(Oc2ccccc2)C3)o1 (single isomer, unassigned; enantiomer 2) [Example 2, 1-[2-(Hydroxy-diphenyl-methyl)-oxazol-5-ylmethyl]-3-phenoxy-1-azoniabicyclo[2.2.2]octane bromide, enantiomer 2] | < 5 | Ki [1, 5]: 0.9 nM; Ki [1, 3]: < 5 nM |
| O[C@](c1ccccc1)(c1ncc(C[N+]23CCC(CC2)[C@@H](Sc2cccc(F)c2)C3)o1)C1CCCCC1 [Example 105, (R)-1-[2-((R)—Cyclohexyl-hydroxy-phenyl-methyl)-oxazol-5-ylmethyl]-3-(3-fluoro-phenylsulfanyl)-1-azonia-bicyclo[2.2.2]octane; bromide] | < 5 | – |
| O[C@](c1ccccc1)(c1ncc(C[N+]23CCC(CC2)C(CCc2ccccc2)C3)o1)C1CCCCC1 (stereo partly drawn) [Example 36, 1-[2-((R)—Cyclohexyl-hydroxy-phenyl-methyl)-oxazol-5-ylmethyl]-3-phenethyl-1-azonia-bicyclo[2.2.2]octane; bromide] | < 5 | – |
| O[C@](c1ccccc1)(c1nnc(C[N+]23CCC(CC2)[C@@H](Oc2ccc(F)cc2)C3)o1)C1CCCCC1 [Example 142, (R)-1-[5-((R)—Cyclohexyl-hydroxy-phenyl-methyl)-[1,3,4]oxadiazol-2-ylmethyl]-3-(4-fluoro-phenoxy)-1-azonia-bicyclo[2.2.2]octane; bromide] | < 5 | – |
| O[C@](c1ccccc1)(c1nnc(C[N+]23CCC(CC2)[C@@H](OCc2ccccc2)C3)o1)C1CCCCC1 [Example 56, (R)-3-benzyloxy-1-[5-((R)-cyclohexyl-hydroxy-phenyl-methyl)-[1,3,4]oxadiazol-2-ylmethyl]-1-azonia-bicyclo[2.2.2]octane; formate] | < 5 | – |
| OC(c1ccccc1)(c1ccccc1)c1noc(C[N+]23CCC(CC2)[C@@H](Oc2ccc(Cl)cc2)C3)n1 [Example 136, (R)-3-(4-Chloro-phenoxy)-1-[3-(hydroxy-diphenyl-methyl)-[1,2,4]oxadiazol-5-ylmethyl]-1-azonia-bicyclo[2.2.2]octane; chloride] | < 5 | – |
| OC(c1ccccc1)(c1ccccc1)c1ncc(C[N+]23CCC(CC2)[C@@H](Oc2cccc(F)c2)C3)o1 [Example 73, (R)-3-(3-Fluoro-phenoxy)-1-[2-(hydroxy-diphenyl-methyl)-oxazol-5-ylmethyl]-1-azonia-bicyclo[2.2.2]octane; bromide] | < 5 | – |
| OC(c1ccccc1)(c1ccccc1)c1ncc(C[N+]23CCC(CC2)[C@@H](Oc2cccc(Cl)c2)C3)o1 [Example 62, (R)-3-(3-Chloro-phenoxy)-1-[2-(hydroxy-diphenyl-methyl)-oxazol-5-ylmethyl]-1-azonia-bicyclo[2.2.2]octane; bromide] | < 5 | – |
| OC(c1ccccc1)(c1ncc(C[N+]23CCC(CC2)C(CSc2ccccc2)C3)o1)C1CCC1 (single isomer, unassigned) [Example 122] | < 5 | – |
| OC(c1ccccc1)(c1ccccc1)c1noc(C[N+]23CCC(CC2)[C@@H](Oc2ccccc2)C3)n1 [Example 103, (R)-1-[3-(Hydroxy-diphenyl-methyl)-[1,2,4]oxadiazol-5-ylmethyl]-3-phenoxy-1-azonia-bicyclo[2.2.2]octane; chloride] | < 5 | – |
| O[C@](c1ccccc1)(c1ncc(C[N+]23CCC(CC2)[C@@H](CSc2ccc(Cl)cc2)C3)o1)C1CCCCC1 [Example 107, (R)-3-(4-Chloro-phenylsulfanylmethyl)-1-[2-(R)cyclohexyl-hydroxy-phenyl-methyl)-oxazol-5-ylmethyl]-1-azonia-bicyclo[2.2.2]octane; bromide] | < 5 | – |
| OC(c1ccccc1)(c1ccccc1)c1noc(C[N+]23CCC(CC2)[C@@H](OCc2ccc(F)cc2)C3)n1 [Example 141, (R)-3-(4-Fluoro-benzyloxy)-1-[3-(hydroxy-diphenyl-methyl)-[1,2,4]oxadiazol-5-ylmethyl]-1-azonia-bicyclo[2.2.2]octane; chloride] | < 5 | – |
| OC(c1ccccc1)(c1ccccc1)c1ncc(C[N+]23CCC(CC2)C(COc2cccc(F)c2)C3)o1 (single isomer, unassigned) [Example 84, 3-(3-Fluoro-phenoxymethyl)-1-[2-(hydroxy-diphenyl-methyl)-oxazol-5-ylmethyl]-1-azonia-bicyclo[2.2.2]octane; bromide] | < 5 | – |
| O[C@@](c1ccccc1)(c1ncc(C[N+]23CCC(CC2)[C@@H](Oc2ccccc2)C3)o1)C1CCCCC1 [Example 7, (R)-1-[2-((S)—Cyclohexyl-hydroxy-phenyl-methyl)-oxazol-5-ylmethyl]-3-phenoxy-1-azonia-bicyclo[2.2.2]octane bromide] | 5 to 20 | – |
| O[C@](c1ccccc1)(c1ncc(C[N+]23CCC(CC2)C(Cc2ccccc2)C3)o1)C1CCCCC1 (stereo partly drawn) [Example 61, 3-benzyl-1-[2-((R)-cyclohexyl-hydroxy-phenyl-methyl)-oxazol-5-ylmethyl]-1-azonia-bicyclo[2.2.2]octane; formate] | < 5 | – |
| O=C(N[C@H]1C[N+]2(Cc3cnc([C@](O)(c4ccccc4)C4CCCCC4)o3)CCC1CC2)c1ccccc1 [Example 13, (R)-3-benzoylamino-1-[2-((R)-cyclohexyl-hydroxy-phenyl-methyl)-oxazol-5-ylmethyl]-1-azonia-bicyclo[2.2.2]octane; formate] | > 20 | – |
| OC(c1ccccc1)(c1ncc(C[N+]23CCC(CC2)C(Oc2ccccc2)C3)o1)C1CCCCC1 (single isomer, unassigned; enantiomer 1) [Example 3, 1-[2-[(RS)—(Cyclohexyl-hydroxy-phenyl-methyl)]-oxazol-5-ylmethyl]-3-phenoxy-1-azonia-bicyclo[2.2.2]octane bromide, enantiomer 1] | – | Ki [1, 3]: 5 to 20 nM |
| O[C@](c1ccccc1)(c1ncc(C[N+]23CCC(CC2)C(COc2cccc(F)c2)C3)o1)C1CCCCC1 (single isomer, unassigned) [Example 81] | < 5 | – |
| O[C@](c1ccccc1)(c1ncc(C[N+]23CCC(CC2)[C@@H](OCc2ccc(Cl)c(Cl)c2)C3)o1)C1CCCC1 [Example 45, (R)-1-[2-((R)-cyclopentyl-hydroxy-phenyl-methyl)-oxazol-5-ylmethyl]-3-(3,4-dichloro-benzyloxy)-1-azonia-bicyclo[2.2.2]octane; formate] | < 5 | – |
| O[C@](c1ccccc1)(c1ncc(C[N+]23CCC(CC2)[C@@H](CSc2ccc(F)cc2)C3)o1)C1CCCCC1 [Example 106, (R)-1-[2-((R)—Cyclohexyl-hydroxy-phenyl-methyl)-oxazol-5-ylmethyl]-3-(4-fluoro-phenylsulfanylmethyl)-1-azonia-bicyclo[2.2.2]octane; bromide] | < 5 | – |
| O[C@](c1ccccc1)(c1ncc(C[N+]23CCC(COCc4ccccc4)(CC2)CC3)o1)C1CCCCC1 [Example 47, 4-Benzyloxymethyl-1-[2-((R)-cyclohexyl-hydroxy-phenyl-methyl)-oxazol-5-ylmethyl]-1-azonia-bicyclo[2.2.2]octane; bromide] | > 20 | – |
| OC(c1ccccc1)(c1cc(C[N+]23CCC(CC2)[C@@H](Oc2cccc(F)c2)C3)on1)C1CCCCC1 (single isomer, unassigned) [Example 101] | < 5 | – |
| OC(c1ccccc1)(c1ccccc1)c1ncc(C[N+]23CCC(CC2)[C@@H](Oc2cccc(Cl)c2Cl)C3)o1 [Example 77, (R)-3-(2,3-dichloro-phenoxy)-1-[2-(hydroxy-diphenyl-methyl)-oxazol-5-ylmethyl]-1-azonia-bicyclo[2.2.2]octane; bromide] | > 20 | – |
| OC(c1ccccc1)(c1noc(C[N+]23CCC(CC2)[C@@H](OCc2ccccc2)C3)n1)C1CCCCC1 (single isomer, unassigned) [Example 30, formate] | < 5 | – |
